Columns and labels:
α-glucosidase [1] = assay: α-glucosidase inhibitory assay; format: biochemical, Saccharomyces cerevisiae
α-glucosidase [2] = assay: in vitro kinetic analysis of α-glucosidase inhibition; format: biochemical, Saccharomyces cerevisiae

SMILES | α-glucosidase inhibitory activity (in words) (α-glucosidase [1]) | mode of inhibition (α-glucosidase [2]; Km increases, Vmax unchanged) | Ki (α-glucosidase [2]; inhibitor 5.00, 10.00, 20.00 µM, substrate 4-nitrophenyl α-D-glucopyranoside) [µM]
CCNC(=S)NC1c2ccccc2CC1O (stereo not drawn) [Compound 2d, 1-ethyl-3-(2-hydroxy-2,3-dihydro-1H-inden-1-yl) thiourea] | inactive |  | 
COc1ccc(NC(=S)NC2c3ccccc3CC2O)cc1 (stereo not drawn) [Compound 2h, 1-(2-hydroxy-2,3-dihydro-1 H-inden-1-yl)-3-(4-methoxyphenyl) thiourea] |  | competitive | 7.39 ± 0.088

— paper PMC12770330 (Scientific Reports, 2025)
